These compounds were tested against T1, thrombopoietin (TPO) receptor (Homo sapiens, UniProt P40238) (assay: Stimulation of proliferation of TPO-dependent cell line UT7/EPO-mpl (WST-8)). Details: FIG. 1; concentration-dependent; 4 days incubation, WST-8 absorbance at 450 nm.
T1 construct: expressed in transfected cells; host or cells: human leukemic cell line UT7/EPO, stably transformed (UT7/EPO-mpl)
T1 sequence (P40238 26-635): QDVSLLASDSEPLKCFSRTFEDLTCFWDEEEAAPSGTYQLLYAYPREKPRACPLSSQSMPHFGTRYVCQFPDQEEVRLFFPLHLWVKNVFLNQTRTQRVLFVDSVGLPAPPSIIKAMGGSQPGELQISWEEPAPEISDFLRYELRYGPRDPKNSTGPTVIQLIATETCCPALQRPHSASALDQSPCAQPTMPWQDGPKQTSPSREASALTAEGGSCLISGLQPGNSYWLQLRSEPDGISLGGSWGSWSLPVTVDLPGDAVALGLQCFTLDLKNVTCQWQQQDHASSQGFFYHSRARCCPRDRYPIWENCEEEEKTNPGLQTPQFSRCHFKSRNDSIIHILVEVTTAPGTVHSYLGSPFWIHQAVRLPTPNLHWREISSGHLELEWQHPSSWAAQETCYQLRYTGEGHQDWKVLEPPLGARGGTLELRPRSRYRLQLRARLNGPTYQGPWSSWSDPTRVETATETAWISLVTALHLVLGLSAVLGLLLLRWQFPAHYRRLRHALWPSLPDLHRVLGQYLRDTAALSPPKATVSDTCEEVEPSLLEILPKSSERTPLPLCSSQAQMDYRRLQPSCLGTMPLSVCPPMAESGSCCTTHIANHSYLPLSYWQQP
Assay type: cell-based
Method: The reactivity of the compound of Synthetic Example 3 of the present invention with thrombopoietin (TPO) receptor was assayed using a human leukemic cell line, UT7/EPO-mpl.
(§1) UT7/EPO-mpl is a stable transformed cell line obtained by introducing into human leukemic cell line UT7/EPO a vector that induces expression of human TPO receptor (c-mp1) under control of a cytomegaloviral promoter by the method of Takatoku et al. (J. Biol. Chem., 272:7259-7263 (1997)). […] These two cell lines were subcultured in Iscove's modified Dulbecco's medium (IMDM; GIBCO) containing 10% fetal bovine serum (FBS; TRACE SCIENTIFIC, Thermo Electron or BioWest) using a CO2 incubator (5% CO2, 37° C.)
(§2) The subcultured cells described above were washed twice with phosphate buffered saline (PBS) and suspended in IMDM containing 10% FBS at a cell density of 6×10^4 cells/ml. The cell suspension was transferred to a 96-well tissue culture plate (CORNING) in 100 μl aliquots. Then either TPO (PeproTech EC) or the compound of Synthetic Example 3 dissolved in dimethyl sulfoxide (DMSO) was diluted 83-fold with IMDM containing 10% FBS and added to the aforementioned cell suspension in 20 μl aliquots. The suspension was incubated in a CO2 incubator (5% Co2, 37° C.) for 4 days. Cell proliferation was assayed using WST-8 reagent (Kishida Chemical Co., Ltd.) according to instructions by the manufacturer. A 10 μl aliquot of 5 mM WST-8 reagent solution was added to each well of the tissue culture plate, and the plate was incubated at 37° C. for 4 h. The formazan pigment generated was detected by measuring the absorbance at 450 nm with a 96-well microplate reader (Nihon Molecular Devices, Spectramax 190).
The compounds of the following Synthetic Examples were tested according to the method of Assay Example 1 to determine the concentration of each compound that yields a growth rate corresponding to 50% of the growth of human leukemic cell line UT-7/EPO-mpl observed in the presence of 10 ng/ml TPO (EC50).

Row | proliferation of TPO-responsive UT7/EPO-mpl cells | SMILES
1 | stimulated | CC(=NNC(=O)c1ccc(C(=O)O)cc1)c1nn(C)c(-c2ccc(C(C)(C)C)cc2)c1O [Synthetic Example 3, 4-[(2-{1-[5-(4-tert-butylphenyl)-4-hydroxy-1-methyl-1H-pyrazol-3-yl]ethylidene}hydrazino)carbonyl]benzoic acid]

Same assay, conditions: concentration that yields a growth rate corresponding to 50% of the growth of UT-7/EPO-mpl observed in the presence of 10 ng/ml TPO

Row | SMILES | EC50 [nM]
2 | C/C(=N\NC(=S)Nc1cccc(C(=O)O)c1)c1csc(-c2ccc(C)c(C)c2)c1O [compound 136] | 7.05
3 | C/C(=N\NC(=S)Nc1ccc2[nH]c(=O)[nH]c2c1)c1csc(-c2ccc(Cl)c(Cl)c2)c1O [compound 154] | 5.69
4 | C/C(=N\NC(=S)Nc1ccc2cn[nH]c2c1)c1nn(C)c(-c2ccc(Cl)c(Cl)c2)c1O [compound 155] | 11.2
5 | CC(=O)Nc1cccc(NC(=S)N/N=C(\C)c2nn(C)c(-c3ccc(C(F)(F)F)cc3)c2O)c1 [compound 157] | 6.32
6 | C/C(=N\NC(=S)Nc1ccccc1CC(N)=O)c1nn(C)c(-c2ccc(C(F)(F)F)cc2)c1O [compound 161] | 7.95
7 | C/C(=N\NC(=S)Nc1cc(C(=O)O)cc([N+](=O)[O-])c1)c1nn(C)c(-c2ccc(Cl)c(Cl)c2)c1O [compound 164] | 5.73
8 | C/C(=N\NC(=O)c1ccc2cc(C(=O)O)ccc2c1)c1csc(-c2ccc(Cl)c(Cl)c2)c1O [compound 169] | 7.41
9 | C/C(=N\NC(=O)c1ccc(N)c(N)c1)c1csc(-c2ccc(Cl)c(Cl)c2)c1O [compound 176] | 36.8

Now from value to compound:

Row | EC50 [nM] | SMILES
10 | 6.51 | C/C(=N\NC(=O)c1ccc(C(=O)NC2CCCC2)s1)c1csc(-c2ccc(Cl)c(Cl)c2)c1O [compound 178]
11 | 6.6 | C/C(=N\NC(=O)c1ccc(C(N)=O)s1)c1csc(-c2ccc(Cl)c(Cl)c2)c1O [compound 179]
12 | 5.65 | C/C(=N\NC(=O)c1sc(N)nc1C(F)(F)F)c1csc(-c2ccc(Cl)c(Cl)c2)c1O [compound 181]
13 | 0.529 | C/C(=N\NC(=O)c1ccc(C(=O)O)c([N+](=O)[O-])c1)c1csc(-c2ccc(C)c(C)c2)c1O [compound 212]
14 | 4.08 | C/C(=N\NC(=O)c1ccc(C(=O)NCCCN(C)C)s1)c1csc(-c2ccc(Cl)c(Cl)c2)c1O [compound 226]
15 | 1.56 | C/C(=N\NC(=O)c1ccc(C(=O)O)cc1N)c1nn(C)c(-c2ccc(C(F)(F)F)cc2)c1O [compound 228]

The compounds below were run on UT7/EPO cells (assay: Proliferation of mother cell line UT7/EPO expressing no TPO receptor (WST-8)). Details: FIG. 2.
Assay type: cell-based, human
Method: as §1
as §2, with “A 10 μl aliquot of 5 mM WST-8 reagent solution was added to each well of the tissue culture plate, and the plate was incubated at 37° C. for 4 h.” left out

Row | SMILES | effect on proliferation of UT7/EPO, the mother cell line
16 | CC(=NNC(=O)c1ccc(C(=O)O)cc1)c1nn(C)c(-c2ccc(C(C)(C)C)cc2)c1O [Synthetic Example 3, 4-[(2-{1-[5-(4-tert-butylphenyl)-4-hydroxy-1-methyl-1H-pyrazol-3-yl]ethylidene}hydrazino)carbonyl]benzoic acid] | no effect

The compounds below were run on Human bone marrow CD34+ cells (assay: Megakaryocyte colony stimulating activity (megakaryocyte colony forming method)). Details: Concentration 0.3 μg/ml; 11 days; colonies of at least 8 stained megakaryocyte cells.
Assay type: cell-based
Method: The action of the compound of Synthetic Example 2 of the present invention on the proliferation, differentiation and maturation of megakaryocyte cells was measured by the megakaryocyte colony forming method using human bone marrow cells. Human bone marrow CD34^+ cells (Cambrex Bio Science Walkersville) were incubated on 2-well chamber slide for 11 days in a CO2 incubator (5% CO2, 37° C.) using MegaCult™-C (StemCell Technologies) containing 0.1% (v/v) of the compound of Synthetic Example 2 dissolved in DMSO. After dehydration and fixation, the cells were stained with an anti-glycoprotein IIb/IIIa antibody in accordance with the instruction by the manufacturer. The colonies consisting of at least 8 stained megakaryocyte cells in each well was counted under a microscope. The megakaryocyte colony counts of duplicate or more assays were averaged.

Row | SMILES | Megakaryocyte colony Count
17 | CC(=NNC(=S)Nc1ccc(C(=O)O)cc1)c1nn(C)c(-c2ccc(Cl)c(Cl)c2)c1O [Synthetic Example 2, 4-{[(2-{1-[5-(3,4-dichlorophenyl)-4-hydroxy-1-methyl-1H-pyrazol-3-yl]ethylidene}hydrazino)carbonothioyl]amino}benzoic acid] | 25

Same assay, conditions: Concentration 1 μg/ml; 11 days; colonies of at least 8 stained megakaryocyte cells

Row | SMILES | Megakaryocyte colony Count
18 | CC(=NNC(=S)Nc1ccc(C(=O)O)cc1)c1nn(C)c(-c2ccc(Cl)c(Cl)c2)c1O [Synthetic Example 2, 4-{[(2-{1-[5-(3,4-dichlorophenyl)-4-hydroxy-1-methyl-1H-pyrazol-3-yl]ethylidene}hydrazino)carbonothioyl]amino}benzoic acid] | 48

Reference: US7576115B2, “Heterocyclic compounds and thrombopoietin receptor activators” (Nissan Chemical Industries, Ltd., priority 2003, dated 2009)
